From patent US20110039793A1, “Application of ginsenoside Rb1 in preparing medicaments for treating dilated cardiomyopathy” (priority 2008, published 2011)

Legend:
[1] = test system: cTnT^R141W transgenic dilated cardiomyopathy mice model; experiment: Left ventricular ultrastructure, electron microscopy; assay type: in vivo; settings: long-term administration
Excerpt: Effects on the left ventricular ultrastructure of the mice model with dilated cardiomyopathy after a long-term administration of ginsenoside Rb1 (electron microscopy)
Fresh myocardial tissues are fixed with 2.5% glutaraldehyde solution, then post-fixed by 1% osmic acid, embedded by Epon812 after the acetone gradient dehydration, wherein the embedded number is five Epon812 per case, ultra-thin sections are double stained by uranyl acetate and lead citrate, and observing by JEM1230 type projection electron microscope. The apparatuses are JEM1230 type projection electron microscope (Japanese Electronics Company), LEICA UCT type microtome (Germany Leica Company).

[2] = test system: cTnT^R141W transgenic dilated cardiomyopathy mice model; experiment: Survival analysis of cTnT^R141W transgenic mice after long-term administration; assay type: in vivo; settings: 75 mg/kg in drinking water for seven months
Protocol: The positive mice at 1.5 months old are distributed by weight and cardiac function uniformly into the model group and the ginsenoside Rb1 administration group according to the echocardiography result, and each group comprises twelve mice. Ginsenoside Rb1, 75 mg/kg (State Yao zhun Zi, Yun Nan Tean Na Pharmaceutical Co., Ltd) is put into animal drinking water, and continuously administered for seven months.
Individual death occurs in the feeding process of the cTnT^R141W transgenic mice model. From the beginning of administration to the observation endpoint, the death of animal of each group is recorded. The death of animal of the negative control group is zero, and the model group is four, and the ginsenoside Rb1 group is two.

`CC(C)=CCC[C@](C)(O[C@@H]1O[C@H](CO[C@@H]2O[C@H](CO)[C@@H](O)[C@H](O)[C@H]2O)[C@@H](O)[C@H](O)[C@H]1O)[C@H]1CC[C@]2(C)[C@@H]1[C@H](O)C[C@@H]1[C@@]3(C)CC[C@H](O[C@@H]4O[C@H](CO)[C@@H](O)[C@H](O)[C@H]4O[C@@H]4O[C@H](CO)[C@@H](O)[C@H](O)[C@H]4O)C(C)(C)[C@@H]3CC[C@]12C` [Rb1, ginsenoside Rb1] was tested, and the intercalated disc structure [1] was “clear”, the mitochondrial structures [1] was “most mitochondrial structures are normal” and the myocytes structure [1] was “clear structures”. For the same compound, the sarcoplasmic reticulum [1] was “slightly dilated”, the “mortality rate (survival analysis, FIG. 2)” value ([2]; vs model group) was “reduce the mortality rate” and the “death of animal of the group (number)” value ([2]; group of twelve mice, model group four, negative control zero) was “two”.
